US12436145B2, “Cryptic antibiotics and methods for detecting bioactive cryptic metabolites” (THE TRUSTEES OF PRINCETON UNIVERSITY, priority 2019, dated 2025)
In brackets after ≈: the same amount, converted by molar mass. Like-named read-outs stand apart in the source and are kept apart here. Peptide text beside a SMILES is read from it.

What was measured:
S. lavendulae [1] = assay: Elicitor screening, supernatants in disc diffusion assays against B. subtilis; format: cell-based, Streptomyces lavendulae; settings: S. lavendulae grown with ~33 μM elicitor, 5 days; supernatant on B. subtilis disc diffusion
Description: (§1) For the high-throughput-elicitor screening portion of this example, the procedure is described for S. hiroshimensis. An identical procedure was used for S. lavendulae and A. keratiniphila. […] The culture was incubated at 30° C./250 rpm for two days. Then, the mycelia cell mass was pelleted by centrifugation, the supernatant discarded, and a stock solution of 100 mg/mL cell mass was generated in R4 medium. The stock solution was used to prepare the appropriate volume (see below) of R4 medium containing 0.5 mg/mL mycelia cell mass in a 250 mL Erlenmeyer flask. The suspension was homogenized by stirring at room temperature. Subsequently, a MultiFlow Dispenser (from Biotek, Inc.) was used to dispense 150 μL of the suspension into each well of six sterile round bottom 96 well plates (from Corning, Inc.). Candidate elicitors were added from a commercially-available 502-member Natural Products Library (from Enzo Life Sciences, Inc.) using a CYBI-WELL™ automated liquid transfer robot (from CyBio AG). A volume of 0.5 μL was transferred from the compound library into each well to give a final concentration of ^˜33 μM. […]
(§2) The resulting agar plates were assessed visually, and subsequently examined visually for halos. To generate FIG. 2, the halo diameter, if any, was measured and categorized as none (n), weak (w), medium (m), or strong (s) inhibition. […]

A. keratiniphila [2] = assay: Elicitor screening, supernatants in liquid bioassay against E. coli; format: cell-based, Amycolatopsis kerathiniphila; settings: A. keratiniphila grown with ~33 μM elicitor; supernatant on E. coli, OD600 nm
Description: (§3) For the high-throughput-elicitor screening portion of this example, the procedure is described for S. hiroshimensis. An identical procedure was used for S. lavendulae and A. keratiniphila. […] The culture was incubated at 30° C./250 rpm for two days. Then, the mycelia cell mass was pelleted by centrifugation, the supernatant discarded, and a stock solution of 100 mg/mL cell mass was generated in R4 medium. The stock solution was used to prepare the appropriate volume (see below) of R4 medium containing 0.5 mg/mL mycelia cell mass in a 250 mL Erlenmeyer flask. The suspension was homogenized by stirring at room temperature. Subsequently, a MultiFlow Dispenser (from Biotek, Inc.) was used to dispense 150 μL of the suspension into each well of six sterile round bottom 96 well plates (from Corning, Inc.). Candidate elicitors were added from a commercially-available 502-member Natural Products Library (from Enzo Life Sciences, Inc.) using a CYBI-WELL™ automated liquid transfer robot (from CyBio AG). A volume of 0.5 μL was transferred from the compound library into each well to give a final concentration of ^˜33 μM. Then each plate was covered with a BREATHE-EASY® sealing membrane (from MilliporeSigma) and cultured at 30° C./200 rpm for 5 days. Humidity was maintained in the shaker/incubator by incubating several flasks containing sterile water.
Assays against E. coli were also carried out. In this case, broader elicitation screens were conducted using a ˜500-member natural product library as the source of potential inducers. To increase the throughput of the assays, liquid bioassays were used. […]
From the elicitor plates, after culturing for 5 days, the plates were spun down in a 96-well plate centrifuge and the supernatants (10 μL) transferred to fresh 96-well assay plates, each well containing 100 μL LB-E. coli culture, with the E. coli cells inoculated to an initial OD600 nm OD600 nm of 0.002. The assay plates were cultured at 37° C./200 rpm overnight (10-12 h) and OD600 nm was then determined using a plate reader. […]

S. cebuensis [3] = assay: Elicitor screening, supernatants on E. coli cultures (OD600 nm); format: cell-based, Saccharopolyspora cebuensis; settings: S. cebuensis grown with elicitor, supernatant on E. coli
Description: Wild-type S. cebuensis cultures were transferred to 96 well-plates and each well was robotically supplemented with a compound from a commercial small molecule library as a source of elicitors. […] To grow the cells, the plates were incubated for a defined period. […] The OD600 nm from each well was normalized and the % E. coli growth thus obtained was plotted as a function of each elicitor, allowing one to identify at least one elicitor corresponding to a second activity greater than the first activity.

P. aeruginosa ATCC 27853 = assay: Minimal inhibitory concentration (CLSI methods); format: cell-based
Description: (§4) Antibacterial assays with taylorflavin B (8) were carried out by Micromyx, LLC in accordance with methods from the Clinical and Laboratory Standards Institute. Minimal inhibitory concentrations were determined with the following strains: E. coli ATCC 25922, A. baumannii ATCC 19606, V. cholerae BAA-2163, N. gonorrhoeae ATCC 49226, P. aeruginosa ATCC 27853, K. pneumoniae MMX 214. S. aureus ATCC 29213, S. aureus MMX 2011, S. pneumoniae ATCC 49619, S. pyogenes MMX 6253, S. agalactiae MMX 6189, E. faecalis ATCC 29212, E. faecalis MMX 486, B. subtilis ATCC 6633, C. difficile ATCC 700057, B. fragilis ATCC 25285. Assays with taylorflavin A (7) were carried in-house according to the same protocols.

S. aureus ATCC 29213 = assay: Minimal inhibitory concentration (CLSI methods); format: cell-based
Description: as §4

E. coli ATCC 25922 = assay: Minimal inhibitory concentration (CLSI methods); format: cell-based
Description: as §4

B. subtilis ATCC 6633 = assay: Minimal inhibitory concentration (CLSI methods); format: cell-based
Description: as §4

E. coli = assay: In-house bioactivity assays of induced peaks and purified taylorflavins; format: cell-based
S. hiroshimensis [4] = assay: Elicitor screening, supernatants in liquid bioassay against E. coli; format: cell-based, Streptomyces hiroshimensis; settings: S. hiroshimensis grown with ~33 μM elicitor; supernatant on E. coli, OD600 nm
Description: as §3, with “A volume of 0.5 μL was transferred from the compound library into each well to give a final concentration of ^˜33 μM.” left out
(§5) Assays against E. coli were also carried out. In this case, broader elicitation screens were conducted using a ˜500-member natural product library as the source of potential inducers. To increase the throughput of the assays, liquid bioassays were used. Rather than manually spotting each disc, the supernatants were screened by robotically transferring the supernatant from the elicitor plate to 96-well plates inoculated with the E. coli test strain.
(§6) From the elicitor plates, after culturing for 5 days, the plates were spun down in a 96-well plate centrifuge and the supernatants (10 μL) transferred to fresh 96-well assay plates, each well containing 100 μL LB-E. coli culture, with the E. coli cells inoculated to an initial OD600 nm OD600 nm of 0.002. The assay plates were cultured at 37° C./200 rpm overnight (10-12 h) and OD600 nm was then determined using a plate reader. To generate the plot in FIG. 3, the OD600 nm from each well was divided by the average OD600 nm from the entire plate and multiplied by 100 to give the percent growth. This normalization was carried out to account for plate-to-plate variation in growth rates.

S. lavendulae [5] = assay: as above; format: cell-based, Streptomyces lavendulae; settings: S. lavendulae grown with ~33 μM elicitor; supernatant on E. coli, OD600 nm
Description: as §3, §5
as §6, with “rates. The results for the entire library are shown for S. lavendulae in FIG. 3. The two wells with the highest stimulation (301, 302) and highest inhibition (303, 304) are indicated.” for “rates.”

A. keratiniphila [6] = assay: Elicitor screening, supernatants in disc diffusion assays against B. subtilis; format: cell-based, Amycolatopsis kerathiniphila; settings: A. keratiniphila grown with ~33 μM elicitor, 5 days; supernatant on B. subtilis disc diffusion
Description: as §1, §2

S. cebuensis [7] = assay: Validation of elicitors: agar disc diffusion assays; format: cell-based, Saccharopolyspora cebuensis; settings: supernatants of S. cebuensis grown with elicitor
S. hiroshimensis [8] = assay: Elicitor screening, supernatants in disc diffusion assays against B. subtilis; format: cell-based, Streptomyces hiroshimensis; settings: S. hiroshimensis grown with ~33 μM elicitor, 5 days; supernatant on B. subtilis disc diffusion
Description: as §3, with “Candidate elicitors were added from a commercially-available 502-member Natural Products Library (from Enzo Life Sciences, Inc.) using a CYBI-WELL™ automated liquid transfer robot (from CyBio AG). A volume of 0.5 μL was transferred from the compound library into each well to give a final concentration of ^˜33 μM.” left out

COc1ccc2c(=O)cc(-c3ccccc3OC)oc2c1 [7,2′-dimethoxyflavone]
induction of anti-B. subtilis metabolite(s) (S. lavendulae [1]): appeared to induce synthesis of anti-B. subtilis metabolite(s)

Cc1cn([C@H]2C[C@H](N=[N+]=[N-])[C@@H](CO)O2)c(=O)[nH]c1=O [AZT]
effect of elicitor-induced metabolome on E. coli growth (A. keratiniphila [2]): produce growth-inhibitory compounds

CCCCC(CC)COC(=O)CC(C(=O)OCC(CC)CCCC)S(=O)(=O)[O-].[Na+] (centres unmarked) [Na-docusate]
effect of elicitor-induced metabolome on E. coli growth (S. cebuensis [3]): stimulated E. coli growth best

Cn1nc2[nH]c(=O)n(C)c(=O)c2nc1=O [Taylorflavin A]
minimal inhibitory concentration (MIC) (P. aeruginosa ATCC 27853): 25 µg/mL (≈ 120 µM)
minimal inhibitory concentration (MIC) (S. aureus ATCC 29213): >64 µg/mL
minimal inhibitory concentration (MIC) (S. aureus ATCC 29213; listed as taylorflavin A): Significantly weaker activity
minimal inhibitory concentration (MIC) (E. coli ATCC 25922): 37.5 µg/mL (≈ 179 µM)
minimal inhibitory concentration (MIC) (B. subtilis ATCC 6633): >64 µg/mL
minimal inhibitory concentration (MIC) (B. subtilis ATCC 6633; listed as taylorflavin A): Significantly weaker activity
antibiotic activity / inhibition of E. coli growth (E. coli): antibiotic activity

CC(=O)OC1CN2CCC1CC2 (centres unmarked) [aceclidine]
effect of elicitor-induced metabolome on E. coli growth (S. hiroshimensis [4]): most enhanced E. coli growth

NC(=O)NC1NC(=O)NC1=O (centres unmarked) [allantoin]
effect of elicitor-induced metabolome on E. coli growth (S. lavendulae [5]): inhibited it

COC(=O)[C@H](Cc1ccccc1)NC(=O)[C@@H](N)CC(=O)O [aspartame] (H-Asp-Phe-OMe)
effect of elicitor-induced metabolome on E. coli growth (A. keratiniphila [2]): enhanced E. coli growth

CC(=O)O[C@H]1C(=O)[C@@]2(C)[C@H]([C@H](OC(=O)c3ccccc3)[C@]3(O)C[C@H](O)C(C)=C1C3(C)C)[C@]1(OC(C)=O)CO[C@@H]1C[C@@H]2O [baccatin III]
induction of zones of inhibition against B. subtilis (A. keratiniphila [6]): gave rise to zones of inhibition

C[C@H](CCC(=O)O)[C@H]1CC[C@H]2[C@@H]3[C@H](O)C[C@@H]4C[C@H](O)CC[C@]4(C)[C@H]3CC[C@]12C [chenodiol]
effect of elicitor-induced metabolome on E. coli growth (S. lavendulae [5]): support E. coli growth best

CN(C)CC[C@@H](c1ccc(Cl)cc1)c1ccccn1 [dexchlorpheniramine]
effect of elicitor-induced metabolome on E. coli growth (S. hiroshimensis [4]): most enhanced E. coli growth

NS(=O)(=O)c1cc(C(=O)O)c(NCc2ccco2)cc1Cl [furosemide]
halo of growth-inhibition in agar disc diffusion (S. cebuensis [7]): halo of growth-inhibition

N[C@H]1C(O)O[C@H](CO)[C@@H](O)[C@@H]1O (some centres unmarked) [glucosamine]
effect of elicitor-induced metabolome on E. coli growth (S. hiroshimensis [4]): most enhanced E. coli growth

O[C@H]1[C@H](O)[C@@H](O)[C@H](O)[C@@H](O)[C@H]1O [inositol]
effect of elicitor-induced metabolome on E. coli growth (S. lavendulae [5]): inhibited it

CC(C)NCC(O)c1ccc(O)c(O)c1 (centres unmarked) [isoproterenol]
effect of elicitor-induced metabolome on E. coli growth (S. lavendulae [5]): support E. coli growth best

COc1cc2oc(=O)ccc2cc1O [isoscopoletin]
induction of zones of inhibition against B. subtilis (A. keratiniphila [6]): gave rise to zones of inhibition

CC12CC3CC(C)(C1)CC(N)(C3)C2 [memantine]
effect of elicitor-induced metabolome on E. coli growth (S. hiroshimensis [4]): inhibited E. coli growth best

Cn1cc[nH]c1=S [methimazole]
effect of elicitor-induced metabolome on E. coli growth (S. cebuensis [3]): stimulated E. coli growth best

CC[C@@H](CO)NC(=O)[C@@H]1C=C2c3cccc4[nH]cc(c34)C[C@H]2N(C)C1 [methylergonovine]
effect of elicitor-induced metabolome on E. coli growth (S. hiroshimensis [4]): inhibited E. coli growth best

NC(=O)CN1CCCC1=O [piracetam]
effect of elicitor-induced metabolome on E. coli growth (S. cebuensis [3]): stimulated E. coli growth best

COc1cc(NC(C)CCCN)c2ncccc2c1 (centres unmarked) [primaquine]
induction of anti-B. subtilis metabolite(s) (S. hiroshimensis [8]): appeared to elicit anti-B. subtilis metabolite(s)

CCN(CC)CCOC(=O)c1ccc(N)cc1 [procaine]
effect of elicitor-induced metabolome on E. coli growth (S. cebuensis [3]): inhibited it
induction of anti-B. subtilis metabolite(s) (S. hiroshimensis [8]): appeared to elicit anti-B. subtilis metabolite(s)

CCN1CCCC1CNC(=O)c1cc(S(N)(=O)=O)ccc1OC (centres unmarked) [sulpiride]
effect of elicitor-induced metabolome on E. coli growth (A. keratiniphila [2]): produce growth-inhibitory compounds
